The NIST ThermoML archive (doi:10.1021/je700438d)

Assay: mn = molality of the nth substance listed, in mol/kg
Conditions: Liquid, Vibrating tube method

[Cl-].[Li+] [lithium chloride] + CCO
Conditions	mass density [kg/m3]
348.15 K, 20090 kPa, m1 = 0.3023	772.2
348.15 K, 20140 kPa, m1 = 1.222	800.25
348.15 K, 20480 kPa, m1 = 0.5873	781.78
348.15 K, 25070 kPa, m1 = 1.222	804.33
348.15 K, 25320 kPa, m1 = 0.5873	786.04
348.15 K, 25420 kPa, m1 = 2.022	826.11
348.15 K, 25640 kPa, m1 = 2.88	846.96
348.15 K, 25840 kPa, m1 = 0.1049	770.86
348.15 K, 25860 kPa, m1 = 0.3023	777.45
348.15 K, 30060 kPa, m1 = 0.3023	781.03
348.15 K, 30160 kPa, m1 = 2.022	829.46
348.15 K, 30410 kPa, m1 = 1.222	808.41
348.15 K, 30610 kPa, m1 = 0.5873	790.37
348.15 K, 30710 kPa, m1 = 0.1049	775.12
348.15 K, 30840 kPa, m1 = 2.88	850.58
348.15 K, 35190 kPa, m1 = 2.88	853.39
348.15 K, 35240 kPa, m1 = 0.1049	778.84
348.15 K, 35420 kPa, m1 = 1.222	811.91
348.15 K, 35610 kPa, m1 = 2.022	832.94
348.15 K, 35840 kPa, m1 = 0.3023	785.62
348.15 K, 35840 kPa, m1 = 0.5873	794.33
348.15 K, 39860 kPa, m1 = 0.5873	797.14
348.15 K, 39860 kPa, m1 = 2.88	856.19
348.15 K, 39930 kPa, m1 = 0.1049	782.45
348.15 K, 39940 kPa, m1 = 0.3023	788.64
348.15 K, 39960 kPa, m1 = 2.022	835.44
348.15 K, 39970 kPa, m1 = 1.222	814.81
373.15 K, 290 kPa, m1 = 0.1049	717.74
373.15 K, 310 kPa, m1 = 0.3023	725.29
373.15 K, 320 kPa, m1 = 2.022	781.71
373.15 K, 840 kPa, m1 = 1.222	757.56
373.15 K, 960 kPa, m1 = 0.5873	736.55
373.15 K, 980 kPa, m1 = 2.88	805.91
373.15 K, 5060 kPa, m1 = 0.3023	731.82
373.15 K, 5060 kPa, m1 = 1.222	762.98
373.15 K, 5140 kPa, m1 = 0.1049	724.52
373.15 K, 5140 kPa, m1 = 2.88	810.39
373.15 K, 5420 kPa, m1 = 0.5873	742.51
373.15 K, 5860 kPa, m1 = 2.022	788.43
373.15 K, 9980 kPa, m1 = 2.88	815.52
373.15 K, 10060 kPa, m1 = 1.222	769.02
373.15 K, 10070 kPa, m1 = 0.3023	738.32
373.15 K, 10080 kPa, m1 = 0.1049	731.05
373.15 K, 10090 kPa, m1 = 0.5873	748.41
373.15 K, 10090 kPa, m1 = 2.022	793.18
373.15 K, 14620 kPa, m1 = 2.88	819.69
373.15 K, 15020 kPa, m1 = 0.3023	744.36
373.15 K, 15420 kPa, m1 = 0.1049	737.69
373.15 K, 15720 kPa, m1 = 2.022	799
373.15 K, 15740 kPa, m1 = 1.222	775.35
373.15 K, 15850 kPa, m1 = 0.5873	755.19
373.15 K, 20080 kPa, m1 = 0.1049	743.13
373.15 K, 20090 kPa, m1 = 0.5873	759.84
373.15 K, 20310 kPa, m1 = 0.3023	750.38
373.15 K, 20310 kPa, m1 = 2.022	803.31
373.15 K, 20340 kPa, m1 = 1.222	780.06
373.15 K, 21420 kPa, m1 = 2.88	825.53
373.15 K, 24940 kPa, m1 = 2.88	828.37
373.15 K, 25050 kPa, m1 = 2.022	807.37
373.15 K, 25080 kPa, m1 = 1.222	784.55
373.15 K, 25410 kPa, m1 = 0.1049	748.94
373.15 K, 25410 kPa, m1 = 0.3023	755.77
373.15 K, 25840 kPa, m1 = 0.5873	765.68
373.15 K, 30060 kPa, m1 = 0.3023	760.33
373.15 K, 30060 kPa, m1 = 2.022	811.2
373.15 K, 30150 kPa, m1 = 0.5873	769.7
373.15 K, 30150 kPa, m1 = 2.88	832.41
373.15 K, 30260 kPa, m1 = 0.1049	753.85
373.15 K, 30410 kPa, m1 = 1.222	789.12
373.15 K, 35160 kPa, m1 = 0.3023	764.94
373.15 K, 35410 kPa, m1 = 2.022	814.8
373.15 K, 35740 kPa, m1 = 2.88	836.3
373.15 K, 35840 kPa, m1 = 0.1049	759.05
373.15 K, 35840 kPa, m1 = 1.222	793.28
373.15 K, 35980 kPa, m1 = 0.5873	774.65
373.15 K, 39820 kPa, m1 = 1.222	796.01
373.15 K, 39910 kPa, m1 = 0.1049	762.54
373.15 K, 39960 kPa, m1 = 0.3023	768.9
373.15 K, 39970 kPa, m1 = 0.5873	777.73
373.15 K, 39970 kPa, m1 = 2.022	817.45
373.15 K, 39980 kPa, m1 = 2.88	839.22
398.15 K, 680 kPa, m1 = 0.3023	696.61
398.15 K, 740 kPa, m1 = 0.1049	688.68
398.15 K, 740 kPa, m1 = 2.022	758.72
398.15 K, 960 kPa, m1 = 1.222	731.58
398.15 K, 1010 kPa, m1 = 2.88	785.44
398.15 K, 1020 kPa, m1 = 0.5873	708.33
398.15 K, 4860 kPa, m1 = 1.222	737.73
398.15 K, 5010 kPa, m1 = 0.1049	695.99
398.15 K, 5030 kPa, m1 = 2.022	765.06
398.15 K, 5070 kPa, m1 = 0.3023	704.02
398.15 K, 5070 kPa, m1 = 2.88	790.37
398.15 K, 5740 kPa, m1 = 0.5873	716.08
398.15 K, 9680 kPa, m1 = 1.222	744.82
398.15 K, 10060 kPa, m1 = 0.3023	711.93
398.15 K, 10060 kPa, m1 = 0.5873	722.74
398.15 K, 10140 kPa, m1 = 2.88	796.07
398.15 K, 10420 kPa, m1 = 2.022	772.34
398.15 K, 10450 kPa, m1 = 0.1049	704.75
398.15 K, 15060 kPa, m1 = 1.222	752.07
398.15 K, 15060 kPa, m1 = 2.022	778
398.15 K, 15090 kPa, m1 = 0.3023	719.36
398.15 K, 15280 kPa, m1 = 2.88	801.31
398.15 K, 15420 kPa, m1 = 0.1049	712.2
398.15 K, 15960 kPa, m1 = 0.5873	731.15
398.15 K, 20010 kPa, m1 = 2.88	805.83
398.15 K, 20090 kPa, m1 = 0.1049	718.73
398.15 K, 20140 kPa, m1 = 0.3023	726.27
398.15 K, 20350 kPa, m1 = 0.5873	736.9
398.15 K, 20470 kPa, m1 = 1.222	758.65
398.15 K, 20740 kPa, m1 = 2.022	784.18
398.15 K, 25230 kPa, m1 = 0.3023	732.68
398.15 K, 25320 kPa, m1 = 2.88	810.7
398.15 K, 25420 kPa, m1 = 0.5873	742.99
398.15 K, 25610 kPa, m1 = 2.022	788.8
398.15 K, 25620 kPa, m1 = 1.222	764.26
398.15 K, 25840 kPa, m1 = 0.1049	726.13
398.15 K, 30050 kPa, m1 = 0.5873	748.05
398.15 K, 30070 kPa, m1 = 0.3023	738.24
398.15 K, 30070 kPa, m1 = 2.88	814.57
398.15 K, 30090 kPa, m1 = 2.022	792.51
398.15 K, 30150 kPa, m1 = 0.1049	731.22
398.15 K, 30410 kPa, m1 = 1.222	768.9
398.15 K, 34950 kPa, m1 = 0.5873	752.88
398.15 K, 34980 kPa, m1 = 2.88	818
398.15 K, 35240 kPa, m1 = 0.3023	743.62
398.15 K, 35810 kPa, m1 = 2.022	796.49
398.15 K, 35860 kPa, m1 = 0.1049	737.37
398.15 K, 35950 kPa, m1 = 1.222	773.57
398.15 K, 39860 kPa, m1 = 0.1049	741.26
398.15 K, 39920 kPa, m1 = 0.5873	757.22
398.15 K, 39940 kPa, m1 = 1.222	776.48
398.15 K, 39940 kPa, m1 = 2.022	798.83
398.15 K, 39970 kPa, m1 = 0.3023	748.04
398.15 K, 39980 kPa, m1 = 2.88	821.9
